Data on one compound can be found in patent publication US11571418B2, “Platinum compounds that inhibit constitutive STAT3 signaling and induce cell cycle arrest and apoptosis of malignant cells” (H. LEE MOFFITT CANCER CENTER AND RESEARCH INSTITUTE, INC., priority 2011, dated 2023).

The test system of one test is Stat5. The test can be described thus: In vitro Stat5 DNA-binding activity assay, EMSA with MGFe probe. Details: species or system mouse. The conditions noted are these: pre-incubated 30 min before MGFe probe. On the procedure: (§1) FIGS. 1A-1E. Inhibition of in vitro Stat3 DNA-binding activity by a platinum complex. Nuclear extracts or cell lysates containing activated Stat1, Stat3 and Stat5, or E2F1 prepared from NIH3T3/hEGFR that are stimulated with EGF or Sf-9 insect cells that are infected with baculovirus expressing Stat1, Stat3, Stat5, or E2F1, respectively, were treated with or without the indicated concentrations of platinum complex, PLATINUM-401 or Cisplatin, for 30 min at room temperature prior to incubation with radiolabeled oligonucleotide probes, and subjected to EMSA analysis. (FIG. 1A) (i) Stat1 and Stat3 binding activities to hSIE probe, (ii) Stat1 and Stat5 binding activities to MGFe probe, and (iii) plot of % oligonucleotide probe-STAT:STAT complexes versus concentration of PLATINUM-401. […] Positions of STAT: STAT-DNA complexes in gel are labeled. In (A) to (C), the control lanes represent DMSO (vehicle)-treatment.
Nuclear extract preparation and gel shift assays—Nuclear extract preparation from NIH3T3 stimulated by rhIL-6, NIH3T3/hEGFR stimulated by rhEGF, v-Src-transformed fibroblasts (NIH3T3/v-Src) or tumor cell lines and electrophoretic mobility shift assay were carried out as previously described (Turkson et al., 1998; Garcia et al., 1997; Yu et al., 1995). […]
For orientation: Mobility shift assays separate free from complexed probe on a gel.

A further test deals with T1, Stat1 (Mus musculus, UniProt P42225).
T1 construct: Nuclear extract preparation from NIH3T3 stimulated by rhIL-6, NIH3T3/hEGFR stimulated by rhEGF; endogenous in cells; host or cells: NIH3T3/hEGFR fibroblasts stimulated with rhEGF (nuclear extract)
T1 sequence (P42225 2-749 limits assumed): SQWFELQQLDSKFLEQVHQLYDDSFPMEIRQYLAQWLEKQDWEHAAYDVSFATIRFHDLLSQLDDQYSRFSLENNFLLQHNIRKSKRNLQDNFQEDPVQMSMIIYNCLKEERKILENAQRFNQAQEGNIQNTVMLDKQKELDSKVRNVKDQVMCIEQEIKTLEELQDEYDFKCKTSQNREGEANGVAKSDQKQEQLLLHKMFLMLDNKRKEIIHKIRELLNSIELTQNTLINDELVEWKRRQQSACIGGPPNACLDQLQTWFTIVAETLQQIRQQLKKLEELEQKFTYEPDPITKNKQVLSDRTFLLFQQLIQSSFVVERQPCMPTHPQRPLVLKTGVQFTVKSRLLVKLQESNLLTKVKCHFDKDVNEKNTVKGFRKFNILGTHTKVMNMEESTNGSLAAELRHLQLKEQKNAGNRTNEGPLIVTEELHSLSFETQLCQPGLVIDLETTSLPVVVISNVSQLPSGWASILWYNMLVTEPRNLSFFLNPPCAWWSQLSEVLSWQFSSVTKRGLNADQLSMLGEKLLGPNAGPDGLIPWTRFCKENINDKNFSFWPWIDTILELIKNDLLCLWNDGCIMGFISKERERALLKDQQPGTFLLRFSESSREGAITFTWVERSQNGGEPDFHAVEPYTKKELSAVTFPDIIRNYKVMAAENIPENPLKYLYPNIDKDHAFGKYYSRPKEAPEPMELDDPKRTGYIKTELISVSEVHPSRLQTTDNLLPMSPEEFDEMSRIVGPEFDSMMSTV
The test can be described thus: In vitro Stat1 DNA-binding activity assay, EMSA with hSIE or MGFe probe. As to conditions: pre-incubated 30 min before probe. On the procedure:
as §1
(§2) Nuclear extract preparation and gel shift assays—Nuclear extract preparation from NIH3T3 stimulated by rhIL-6, NIH3T3/hEGFR stimulated by rhEGF, v-Src-transformed fibroblasts (NIH3T3/v-Src) or tumor cell lines and electrophoretic mobility shift assay were carried out as previously described (Turkson et al., 1998; Garcia et al., 1997; Yu et al., 1995). The ^32P-labeled oligonucleotide probes used are hSIE (high affinity sis-inducible element from the c-fos gene, m67 variant, 5′-[…]) (SEQ ID NO:1) that binds Stat1 and Stat3 (Garcia et al., 1997; Wagner et al., 1990) and MGFe (mammary gland factor element from the bovine β-casein gene promoter, 5′-AGATTTCTAGGAATTCAA) (SEQ ID NO:2) for Stat1 and Stat5 binding (49,50). Except where indicated, inhibitor compound was pre-incubated with the nuclear extract for 30 min at room temperature prior to incubation with radiolabeled probe.
Compounds from the NCI 2000 diversity set were screened for inhibition of Stat3 signaling in an in vitro DNA-binding activity assay based on analysis by electrophoretic mobility shift assay (EMSA). […]

Test [1] has as its target T2, Stat3 (Mus musculus, UniProt P42227).
T2 construct: Nuclear extract preparation from NIH3T3 stimulated by rhIL-6, NIH3T3/hEGFR stimulated by rhEGF; endogenous in cells; host or cells: NIH3T3/hEGFR fibroblasts stimulated with rhEGF (nuclear extract)
The test can be described thus: In vitro Stat3 DNA-binding activity assay, EMSA with hSIE probe. As to conditions: pre-incubated 30 min before hSIE probe. How it is done: as §1, §2
Compounds from the NCI 2000 diversity set were screened for inhibition of Stat3 signaling in an in vitro DNA-binding activity assay based on analysis by electrophoretic mobility shift assay (EMSA). A platinum (IV) complex, PLATINUM-401 (NSC 295558) (FIG. 1E), was identified as a potent inhibitor of Stat3 and was further characterized for its anti-Stat3 properties. In the in vitro DNA-binding activity assay, nuclear extracts of equal total protein containing active Stat1, Stat3 and Stat5 were pre-incubated with different concentrations of PLATINUM-401 for 30 min prior to incubation with a [^32P]-labeled oligonucleotide, the m67 high affinity sis-inducible element (hSIE) probe that binds Stat1 and Stat3, or the mammary gland factor element (MGFe) that binds Stat1 and Stat5. Samples were then subjected to EMSA.

The next test concerns the target T3, E2F1 (Homo sapiens, UniProt Q01094).
T3 construct: made in house; host or cells: Sf-9 insect cells infected with baculovirus
In words: In vitro E2F1 DNA-binding activity assay, EMSA with DHFR promoter probe. The conditions noted are these: cell lysates pre-incubated with compound before DHFR promoter probe. On the procedure:
as §1
In control studies, the effect of PLATINUM-401 was evaluated on the DNA-binding activity of the E2F1 protein that is unrelated to STATs.

Test [2] has as its target T2, Stat3. As to conditions: Turkson et al., 2004b; cited from earlier work.

T2 sequence (P42227 2-770 limits assumed): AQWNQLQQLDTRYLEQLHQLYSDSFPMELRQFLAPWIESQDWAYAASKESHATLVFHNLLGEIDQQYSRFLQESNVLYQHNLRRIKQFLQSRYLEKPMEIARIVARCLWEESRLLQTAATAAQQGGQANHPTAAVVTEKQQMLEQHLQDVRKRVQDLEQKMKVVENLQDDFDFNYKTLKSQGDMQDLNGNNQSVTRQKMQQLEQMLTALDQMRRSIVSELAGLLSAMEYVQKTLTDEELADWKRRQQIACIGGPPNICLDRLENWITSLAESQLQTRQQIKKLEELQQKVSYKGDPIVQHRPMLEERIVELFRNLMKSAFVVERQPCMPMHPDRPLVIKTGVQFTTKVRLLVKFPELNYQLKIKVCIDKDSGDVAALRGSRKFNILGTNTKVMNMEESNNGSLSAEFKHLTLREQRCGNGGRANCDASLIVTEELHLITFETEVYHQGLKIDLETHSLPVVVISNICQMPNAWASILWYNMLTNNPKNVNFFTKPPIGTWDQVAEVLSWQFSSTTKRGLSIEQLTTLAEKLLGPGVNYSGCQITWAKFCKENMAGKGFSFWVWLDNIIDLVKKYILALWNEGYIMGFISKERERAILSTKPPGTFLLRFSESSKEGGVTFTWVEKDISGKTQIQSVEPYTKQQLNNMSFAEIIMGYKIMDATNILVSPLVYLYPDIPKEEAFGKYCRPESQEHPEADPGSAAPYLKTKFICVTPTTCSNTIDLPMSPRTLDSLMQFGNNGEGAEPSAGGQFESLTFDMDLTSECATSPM
T3 sequence (Q01094 whole entry, species assumed): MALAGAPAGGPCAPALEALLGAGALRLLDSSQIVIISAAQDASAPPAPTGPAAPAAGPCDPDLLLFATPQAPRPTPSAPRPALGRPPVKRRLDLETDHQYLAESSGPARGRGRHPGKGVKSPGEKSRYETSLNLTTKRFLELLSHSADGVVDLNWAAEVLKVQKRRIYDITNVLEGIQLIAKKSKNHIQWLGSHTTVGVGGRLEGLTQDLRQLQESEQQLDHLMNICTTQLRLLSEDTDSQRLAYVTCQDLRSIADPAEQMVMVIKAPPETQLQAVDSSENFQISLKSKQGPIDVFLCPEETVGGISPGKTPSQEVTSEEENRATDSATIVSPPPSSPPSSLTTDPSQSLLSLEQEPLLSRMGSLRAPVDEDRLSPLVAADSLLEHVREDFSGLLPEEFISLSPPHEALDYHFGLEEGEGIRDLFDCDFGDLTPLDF

Regarding `N.N.[Cl][Pt][Cl]` [Cisplatin, reference compound], the “effect on DNA-binding activity of Stat5:Stat5 dimer” value in the test with Stat5 was “no detectable effect”. At Stat1, the “effect on DNA-binding activity of Stat1:Stat1 homodimer” value was “no detectable effect”. Also, the “effect on DNA-binding activity of Stat3:Stat3 homodimer” value on Stat3 [1] was “no detectable effect”. In addition, the “effect on E2F1 DNA-binding activity” value on E2F1 is listed as “no detectable effect”. The “effect on Stat3 activity” value at Stat3 [2] was “no effect”.
